Source: article PMC3475717, “A Spiroligomer α-Helix Mimic That Binds HDM2, Penetrates Human Cells and Stabilizes HDM2 in Cell Culture” (PLoS ONE, 2012)
“And” between values parts separate entries of the source, which are not always exact repeats. Equal entries are not always repeated. “Also recorded” adds a separate entry of the source. One block for each molecule: values may come before it.

What was measured:
[1] = tested on: HDM2, p53Y220C and p21 in Huh7 cells; experiment: Western blot analysis of HDM2, p53 and p21; assay type: cell-based, human
Protocol: Huh7 cells were incubated with spiroligomer 1 and Nutlin-3 in media at 2, 5, 10 and 20 µM for 17 hours at 37°C. […] Huh7 cells were then incubated with 1 at 15 µM and cells were harvested at 2, 4, 6, 8, 12 and 24 hours. […]
Cell Culture and Treatment. HepG2 (expressing wild-type p53) and Huh7 (expressing mutant p53) cell lines were purchased from the American Type Culture Collection (ATCC) and cultured as monolayers in Dulbecco’s modified Eagle’s medium (DMEM) (Invitrogen) supplemented with 100 mM nonessential amino acid solution, 100 mM sodium pyruvate, 100 U/mL penicillin, 100 μg/mL streptomycin, and 10% heat inactivated fetal bovine serum (FBS) (all from Hyclone).
Cells were maintained at 37° C and 5% CO2 and were treated with media that contained 0.5%
FBS. Nutlin-3 (Sigma) was dissolved in 0.01% DMSO (Sigma).
Both nutlin-3 and spiroligomers were added into the medium for final concentrations of 2 µM, 5 µM, 10 µM and 20 µM for 24 hours. For the western blot experiments detailed below, the time length for incubation with bis-peptide was 17 hours. […]
Western Blotting. For protein extraction, cells were lysed in cell lysis buffer (Cell Signaling) with a protease inhibitor cocktail for 20 minutes on ice. Protein extracts (50 μg) were separated by SDS-PAGE electrophoresis, transferred to nitrocellulose membranes (Schleicher & Schuell), and incubated overnight with primary antibodies to p53, HDM2, p21, and β-actin (all from Santa Cruz Biotechnology). The blots were developed using ECL plus detection system (Amersham Biosciences) and exposed to Kodak imaging films (Kodak BioMax). Images were quantified using ImageJ software (NIH).
Figure S.5. Detection of bis-peptide 1 and Nutlin-3 in HepG2 (left) and Huh7 (right) cells. The concentration of each compound is given in μM and the three proteins (HDM2, p53 and p21) bands are […]

[2] = biological target: T1, HDM2_25–117 (Homo sapiens, UniProt Q00987); experiment: direct binding fluorescence polarization assay; details: fluorescein labeled ligand at 10 nM, varying HDM2; read-out: Kd (HDM2/MDM2)
T1 construct: unnamed fusion partner ('fusion protein'); made in house; host or cells: E. coli BL21
T1 sequence (Q00987 25-117): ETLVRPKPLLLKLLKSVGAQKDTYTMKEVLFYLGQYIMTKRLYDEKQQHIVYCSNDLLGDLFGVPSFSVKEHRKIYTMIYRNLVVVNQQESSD
Protocol: To measure the binding affinity of the functionalized spiroligomers to HDM2 we utilized a direct binding fluorescence polarization assay. The binding of the fluorescein labeled spiroligomers was measured at 10 nM spiroligomer in the presence of varying concentrations of HDM2_25–117 [31]. […] The initial screen of spiroligomers including 3–7 was carried out on the spiroligomer backbone containing all (S) stereochemistry to identify appropriate functional groups to mimic the side chains of Phe19, Trp23 and Leu26 of the p53 helix.
HDM2 Protein Expression. A fusion protein consisting of residues 1-140 (the plasmid was a generous gift from the lab of Neil Zondlo, University of Delaware) was prepared by over-expression.4 Plasmids were used to transform chemically competent E-coli BL21 Cells (Novagen), and a single colony was used to inoculate 2×4 mL LB media culture tubes containing 0.1 mg/mL ampicillin, at 37 °C overnight. These overnight cultures were used to inoculate a 1 L culture of TB media containing 0.1 mg/ml ampicillin. The culture was incubated at 37 °C with shaking at 250 rpm until the optical density at 600 nm reached to 0.9 absorbance units. Protein overexpression was then induced by the addition of 20% isopropyl β-D-thiogalactoside (IPTG) to 0.4 mM final concentration. The culture was then grown for additional 5 hours at 30 °C. Then cells were harvested at 4 °C by centrifugation at 4500 rpm for 20 min.
The cell pellet was resuspended in chilled 1x Binding Buffer (0.5 M NaCl, 20 mMTris-Hcl, 5 mM imidazole, pH 7.9), frozen and stored at -80 °C until protein purification.
Protein Purification. The frozen cell pellet was thawed at 4 °C and lysed by sonication for 2 minutes with 10 sec on and 20 sec off. Cell debris was pelleted by centrifugation for 30 min at 15000 g, 4 °C and the supernatant was filtered through a 0.2 μm syringe filter. A column was prepared using 2 mL Novagen His-Bind suspended resin and resin was washed with 3 volumes DI water. The flow rate maintained was not more than 0.5 ml/min throughout the purification.
The resin was charged with 5 vol 1x Charge Buffer (50 mM NiSO4) and then equilibrated with 3 vol 1x Binding Buffer (5 mM imidazole). After loading the column with prepared extract, the resin was washed with 10 vol 1x Binding Buffer and then with 6 vol 1x Wash Buffer (10 mM imidazole). Protein was then eluted with 6 vol 1x Elution Buffer (1 M imidazole). The eluate was captured in fractions of 0.5 ml. Fractions were assayed with Coomasie blue and desired fractions were combined and dialyzed using spectra/por 6 Dialysis Membranes of 10,000 MWCO (Spectrum Laboratories) in PBS (pH 7.4, 5 mM EDTA and 0.5 mM DTT) for overnight.
The resulting protein was characterized by SDS-PAGE (4-20% gradient gel) for purity analysis and concentrations were measured by UV analysis.
Fresh protein was used immediately for protein binding experiments. […]
Direct Binding Fluorescence Polarization Experiments. Fluorescence polarization experiments were undertaken to assess the ability of spiroligomers to bind HDM2, a protein with hydrophobic cleft that binds the p53 N-terminal helical domain. Fluoresceinated oligomers (conc. of 10 nM) were incubated for 30 minutes at room temperature with sequential dilutions of […]

[3] = biological target: T2, HDM2 (Homo sapiens, UniProt Q00987); experiment: competition fluorescence polarization experiment (displacement of Flp4 peptide); assay type: binding; details: hDM2 0.4 μM, Flp4 10 nM, three independent trials
T2 construct: A fusion protein consisting of residues 1-140; unnamed fusion partner ('fusion protein'); made in house; host or cells: E. coli BL21
T2 sequence (Q00987 1-140): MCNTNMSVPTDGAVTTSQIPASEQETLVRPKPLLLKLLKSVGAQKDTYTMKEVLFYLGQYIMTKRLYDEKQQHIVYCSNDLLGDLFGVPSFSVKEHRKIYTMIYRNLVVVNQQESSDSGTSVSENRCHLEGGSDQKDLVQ
Protocol: Competition Fluorescence Polarization Experiments. To assess the ability of oligomer 2 to […]
competition experiments were undertaken. hDM2 (0.4 μM) and Flp4 control peptide (10 nM) were incubated at room temperature for 30 minutes in binding buffer, followed by the addition of serial dilutions of oligomer 2 (final conc. 400 μM to 0.194 μM). The binding experiments were incubated for a further 30 minute time period, followed by recording of the polarization data. See […]
Bis- Pept ide ( nM ) Po lar A ( mP)
Table S.6. Table of raw values used for the plot of the competition binding experiment; X values are oligomer 2 concentration (in nM) and Y values are polarization (in millipolarization units); data from three independent trials is shown.

[4] = biological target: T2, HDM2; experiment: as above; assay type: binding; details: Flp4 at 10 nM with 2 µM HDM2, series of concentrations of spiroligomer; read-out: Ki against Flp4 peptide

SMILES: COc1ccc(C2=N[C@@H](c3ccc(Cl)cc3)[C@@H](c3ccc(Cl)cc3)N2C(=O)N2CCNC(=O)C2)c(OC(C)C)c1 [Nutlin-3]
- HDM2 levels relative to control cells [1]: not seen; also recorded: very weak stabilization effect on HDM2
- HDM2 levels with time [1]: only very small changes; also recorded: very little effect on HDM2
- p53Y220C levels [1]: No visible effect
- p53Y220C levels with time [1]: no observable effect on p53Y220C levels

- Kd [2]: 23 µM
SMILES: CC(C)CN1C(=O)[C@@H]2C[C@@]3(CN2C(=O)[C@@]12C[C@H]1C(=O)N(Cc4ccc(Cl)c(Cl)c4)[C@@]4(C[C@H]5C(=O)N[C@H](CCc6ccccc6)C(=O)N5C4)C(=O)N1C2)NC(=O)[C@H](CCCCNC(=S)Nc1ccc2c(c1)C(=O)OC21c2ccc(O)cc2Oc2cc(O)ccc21)NC3=O [Compound 8]

- Kd [2]: 6.7 µM
SMILES: CC(C)CN1C(=O)[C@@H]2C[C@@]3(CN2C(=O)[C@@]12C[C@H]1C(=O)N(Cc4ccc(Cl)c(Cl)c4)[C@]4(C[C@@H]5C(=O)N[C@@H](CCc6ccccc6)C(=O)N5C4)C(=O)N1C2)NC(=O)[C@H](CCCCNC(=S)Nc1ccc2c(c1)C(=O)OC21c2ccc(O)cc2Oc2cc(O)ccc21)NC3=O [Compound 9]

- polarization of Flp4 in competition ([3]; oligomer 194.8242 nM): 115. 56 mP and 119. 19 mP and 107. 52 mP
- polarization of Flp4 in competition ([3]; oligomer 389.6484 nM): 109. 71 mP and 120. 5 mP and 117. 89 mP
- polarization of Flp4 in competition ([3]; oligomer 779.2969 nM): 107. 07 mP and 119. 05 mP and 110. 95 mP
- polarization of Flp4 in competition ([3]; oligomer 1558.594 nM): 102. 29 mP and 112. 93 mP and 113. 76 mP
- polarization of Flp4 in competition ([3]; oligomer 3117.188 nM): 103. 88 mP and 103. 29 mP and 109. 28 mP
- polarization of Flp4 in competition ([3]; oligomer 6234.375 nM): 97.23 mP and 94.66 mP and 93.84 mP
- polarization of Flp4 in competition ([3]; oligomer 12468.75 nM): 91.7 mP and 86.62 mP and 91.97 mP
- polarization of Flp4 in competition ([3]; oligomer 24937.5 nM): 88.82 mP and 82 mP and 88.53 mP
- polarization of Flp4 in competition ([3]; oligomer 49875 nM): 86.21 mP and 84.81 mP and 86.83 mP
- polarization of Flp4 in competition ([3]; oligomer 99750 nM): 78.06 mP and 93.73 mP and 94.13 mP
- polarization of Flp4 in competition ([3]; oligomer 199500 nM): 84.38 mP and 85.9 mP and 80.84 mP
- polarization of Flp4 in competition ([3]; oligomer 399000 nM): 75.41 mP and 67.78 mP and 78.26 mP
- Ki [4]: 5 µM
SMILES: CC(C)CN1C(=O)C2CC3(CN2C(=O)C12CC1C(=O)N(Cc4ccc(Cl)c(Cl)c4)C4(CC5C(=O)NC(CCc6ccccc6)C(=O)N5C4)C(=O)N1C2)NC(=O)C(CCC(=O)O)NC3=O (stereo not drawn) [Compound 2]

- Kd [2]: 16 µM
SMILES: CC(C)CN1C(=O)[C@@H]2C[C@@]3(CN2C(=O)[C@@]12C[C@H]1C(=O)N(Cc4cccc5ccccc45)[C@]4(C[C@H]5C(=O)N[C@@H](Cc6ccccc6)C(=O)N5C4)C(=O)N1C2)NC(=O)[C@H](CCCCNC(=S)Nc1ccc2c(c1)C(=O)OC21c2ccc(O)cc2Oc2cc(O)ccc21)NC3=O [Compound S10]

SMILES: CC(C)CCN1C(=O)[C@@H]2C[C@@]3(CN2C(=O)[C@@]12C[C@H]1C(=O)N(Cc4ccc(Cl)c(Cl)c4)[C@]4(C[C@H]5C(=O)N[C@@H](Cc6ccccc6)C(=O)N5C4)C(=O)N1C2)NC(=O)[C@H](CCCCNC(=S)Nc1ccc2c(c1)C(=O)OC21c2ccc(O)cc2Oc2cc(O)ccc21)NC3=O [Compound 5]
- Kd [2]: 6.3 µM

- Kd [2]: 4.6 µM
SMILES: CC(C)CN1C(=O)[C@@H]2C[C@@]3(CN2C(=O)[C@@]12C[C@H]1C(=O)N(Cc4ccc(Cl)c(Cl)c4)[C@@]4(C[C@H]5C(=O)N[C@H](CCc6ccccc6)C(=O)N5C4)C(=O)N1C2)NC(=O)[C@@H](CCCCNC(=S)Nc1ccc2c(c1)C(=O)OC21c2ccc(O)cc2Oc2cc(O)ccc21)NC3=O [Compound 11]

- Kd [2]: 4.8 µM
SMILES: CC(C)CN1C(=O)[C@@H]2C[C@@]3(CN2C(=O)[C@@]12C[C@H]1C(=O)N(Cc4ccc(Cl)c(Cl)c4)[C@@]4(C[C@@H]5C(=O)N[C@H](CCc6ccccc6)C(=O)N5C4)C(=O)N1C2)NC(=O)[C@@H](CCCCNC(=S)Nc1ccc2c(c1)C(=O)OC21c2ccc(O)cc2Oc2cc(O)ccc21)NC3=O [Compound 10]

- Kd [2]: 1.6 µM
SMILES: CC(C)CN1C(=O)[C@@H]2C[C@@]3(CN2C(=O)[C@@]12C[C@H]1C(=O)N(Cc4ccc(Cl)c(Cl)c4)[C@]4(C[C@H]5C(=O)N[C@@H](CCc6ccccc6)C(=O)N5C4)C(=O)N1C2)NC(=O)[C@@H](CCCCNC(=S)Nc1ccc2c(c1)C(=O)OC21c2ccc(O)cc2Oc2cc(O)ccc21)NC3=O [Compound 12]
